Reference: US20250188088A1, “COMPOUND AND USE THEREOF” (ONQUALITY PHARMACEUTICALS CHINA LTD., priority 2022, published 2025)
≈ marks a conversion by molar mass, not a printed value. Read-outs that look alike come from different tables or passages of the source.

Experiments:
[1] = Thermodynamic solubility assay (PBS pH 6.5; isopropyl myristate); assay type: physicochemical; settings: thermodynamic from solid
Procedure: Thermodynamic Solubility Assay
Weigh not less than 2 mg of the sample powder into a Whatman Mini-UniPrep vial. If it is required to test the thermodynamic solubility of samples in multiple buffers, a separate vial is needed for each test; add 450 μL of buffer to each Whatman Mini-UniPrep vial, respectively; after that, install the piston cap of Whatman Mini-UniPrep and press it above the liquid level, so that the filter is in contact with the buffer during shaking; shake the solubility sample by vortexing for 1 minute.
Inject 3 UV standard solutions from low to high concentrations into the HPLC, then inject the diluent and supernatant of the test compound, with two replicates of test sample; and integrate the UV peaks. Simulate a standard curve and calculate the thermodynamic solubility of the sample.

[2] = test system: rash caused by small molecule EGFR inhibitors; assay: Treatment of rash caused by small molecule EGFR inhibitors, topical ointment, rat model; assay type: in vivo, SD rats
Procedure: An Experiment to Verify the Treatment of Rash Caused by Small Molecule EGFR Inhibitors with Topical Administration of Compounds of the Present Application on a Rat Animal Model After the SD rats were fed and adapted for one week (about 200 g), the rats were divided into 10 rats per group. The hair on the back of rats was gently removed with an electric razor one day before the experiment, and then an intragastric administration test was carried out. EGFR inhibitors were dissolved in a sterile aqueous solution, and diluted with PBS buffer; the amount of each gavage was not more than 2 mL, and the dosage was shown in Table 3. […] The experiments were divided into the administration group with the compound of the present application and the control group. During the treatment experiment, EGFR inhibitors were intragastrically administered continuously every day. After the gavage, the administration group applied the compound ointment of the present application on the back (about 3 cm*3 cm) of rats, and the control group applied blank matrix ointment on the back (about 3 cm*3 cm); after application, the rats were fixed with a fixed cyclinder for about 4 hours, and then the rats were released, with the residual drug at the application site wiped off with clean water, and put back into the cage. The frequency of intragastric administration of EGFR inhibitors is shown in Table 3, but the compounds of the present application and blank ointment are applied only once a day. […] Table 3 lists the animal experiment combinations of various small molecule EGFR inhibitors and the compound ointment of the present application, as well as the corresponding experiment results (wherein, the value in the control rate column=the number of rats whose rash is milder in the administration group than that in the control group/the total number of rats in the administration group×100%).

solubility thermodynamic at 24 h ([1]; aqueous buffer, PBS buffer pH 6.5, about 25° C., read-out: Thermodynamic Solubility pH = 6.5): 4390 µg/mL (≈ 8.58 mM) | solubility thermodynamic at 24 h ([1]; oil or lipid, isopropyl myristate as vehicle, about 25° C., read-out: Thermodynamic Solubility in Isopropyl Myristate): 375 µg/mL (≈ 0.733 mM)
Structure (SMILES): C[C@@H]1CCN(C(=O)CC#N)C[C@@H]1N(C)c1ncnc2c1ccn2C(=O)N(C)CCOC(=O)C1CCCO1 (stereo partly shown) [Compound A7]
Control Rate ([2]; Afatinib 40 mg/kg once a day, 6 dosing modelling days, ointment 0.1 wt% once a day): 20% | Control Rate ([2]; Afatinib 40 mg/kg once a day, 6 dosing modelling days, ointment 3.0 wt% once a day): 60% | Control Rate ([2]; BPI-7711 60 mg/kg once a day, 6 dosing modelling days, ointment 3.0 wt% once a day): 70% | Control Rate ([2]; EAI045 80 mg/kg once a day, 8 dosing modelling days, ointment 1.0 wt% once a day): 50% | Control Rate ([2]; EAI045 80 mg/kg once a day, 8 dosing modelling days, ointment 5.0 wt% once a day): 80% | Control Rate ([2]; Larotinib 20 mg/kg once a day, 6 dosing modelling days, ointment 3.0 wt% once a day): 6% | Control Rate ([2]; Osimertinib 60 mg/kg twice a day, 7 dosing modelling days, ointment 3.0 wt% once a day): 10% | Control Rate ([2]; Osimertinib 60 mg/kg twice a day, 7 dosing modelling days, ointment 10.0 wt% once a day): 70%
